Experimental findings from PMC10692723 (The Journal of Biological Chemistry, 2023) are described below.

Where a chain is given by its changes, count along the chain named. Names may count otherwise. Ends that are not written are not given here. * marks the point of attachment. FITC = O=C1OC2(c3ccc(O)cc3Oc3cc(O)ccc32)c2ccc(NC(=S)*)cc21

B1: FITC-conjugated CD44 peptide (SRRRCGQKKKLVINSGNGAVEDYK-FITC) (peptide)
peptide: SRRRCGQKKKLVINSGNGAVEDYK(FITC)
B2: MSN FERM domain (1-345) H288A, untagged (domain or fragment)
chain: MPKTISVRVTTMDAELEFAIQPNTTGKQLFDQVVKTIGLREVWFFGLQYQDTKGFSTWLKLNKKVTAQDVRKESPLLFKFRAKFYPEDVSEELIQDITQRLFFLQVKEGILNDDIYCPPETAVLLASYAVQSKYGDFNKEVHKSGYLAGDKLLPQRVLEQHKLNKDQWEERIQVWHEEHRGMLREDAVLEYLKIAQDLEMYGVNYFSIKNKKGSELWLGVDALGLNIYEQNDRLTPKIGFPWSEIRNISFNDKKFVIKPIDKKAPDFVFYAPRLRINKRILALCMGNAELYMRRRKPDTIEVQQMKAQAREEKHQKQMERAMLENEKKKREMAEKEKEKIEREKE
B3: MSN FERM domain (1-345) L281R, untagged (domain or fragment)
chain: B2 chain with L281R, A288H

Data set [1] deals with GST-MSN and Venus-Flag-CD44 (Homo sapiens, UniProt P26038). Description: GST pull-down assay in cell lysates. The data set is classed as binding. The note with it: full-length GST-MSN and Flag-CD44.
Chain of GST-MSN and Venus-Flag-CD44 (P26038 whole entry): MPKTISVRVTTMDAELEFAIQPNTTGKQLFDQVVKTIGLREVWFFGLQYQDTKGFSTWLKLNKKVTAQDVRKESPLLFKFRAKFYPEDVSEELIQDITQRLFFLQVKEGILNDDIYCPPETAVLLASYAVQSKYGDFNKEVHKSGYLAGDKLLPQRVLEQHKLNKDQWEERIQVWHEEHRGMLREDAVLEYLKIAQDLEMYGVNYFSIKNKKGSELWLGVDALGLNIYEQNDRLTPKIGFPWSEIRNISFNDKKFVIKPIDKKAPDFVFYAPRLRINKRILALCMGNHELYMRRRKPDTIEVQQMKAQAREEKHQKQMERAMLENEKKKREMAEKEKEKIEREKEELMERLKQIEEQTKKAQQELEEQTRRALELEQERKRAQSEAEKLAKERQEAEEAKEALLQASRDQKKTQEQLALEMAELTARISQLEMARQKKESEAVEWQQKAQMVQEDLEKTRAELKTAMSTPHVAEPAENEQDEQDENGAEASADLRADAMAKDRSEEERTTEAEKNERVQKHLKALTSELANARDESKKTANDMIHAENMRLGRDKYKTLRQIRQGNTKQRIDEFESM
The target in the next data set is MSN–CD44 interaction (Homo sapiens, UniProt P26038). As to the kind of experiment: MSN–CD44 TR-FRET assay. The data set is classed as binding. To be noted: for increase in potency relative to compound 2: MSN–CD44 TR-FRET.
Chain of MSN–CD44 interaction (P26038 1-345): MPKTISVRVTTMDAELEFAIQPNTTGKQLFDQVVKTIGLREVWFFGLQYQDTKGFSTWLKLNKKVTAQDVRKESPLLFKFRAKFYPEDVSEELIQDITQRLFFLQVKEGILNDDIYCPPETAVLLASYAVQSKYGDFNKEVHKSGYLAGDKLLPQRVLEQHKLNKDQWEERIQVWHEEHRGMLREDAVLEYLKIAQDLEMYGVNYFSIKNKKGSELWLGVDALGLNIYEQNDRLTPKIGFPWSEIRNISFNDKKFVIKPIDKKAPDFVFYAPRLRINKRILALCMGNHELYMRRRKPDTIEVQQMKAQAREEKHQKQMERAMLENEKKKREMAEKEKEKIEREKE
Data set [2] is described as follows: Solubility by nephelometry. The note with it: aqueous / PBS buffer.
The target of data set [3] is T1, 6His-tagged MSN FERM domain (residues 1-345), wild type (human, UniProt P26038 1-345). Description: FRET or BRET.
The target in data set [4] is MSN FERM domain (residues 1-345), wild type, 6His tag cleaved (human, UniProt P26038 1-345). Description: FRET or BRET.
For data set [5], the target named is B1. As to the kind of experiment: FRET or BRET.
The target of data set [6] is T1, 6His-tagged MSN FERM domain (residues …). As to the kind of experiment: FRET or BRET. This is another data set of the same source.
For data set [7] the target is unchanged. As to the kind of experiment: FRET or BRET. This is another data set of the same source.

`Nc1ccc(C(=O)Nc2ccc(-c3nc4ccc(NC(=O)c5ccc(N)cc5)cc4s3)cc2)cc1.O=C(O)C(F)(F)F.O=C(O)C(F)(F)F` [Compound 1, 4-amino-N-(4-(6-(4-aminobenzamido)benzo[d]thiazol-2-yl)phenyl)benzamide bis(2,2,2-trifluoroacetate)]: the “effect on MSN–CD44 interaction in GST pull-down assay” value (“effect on MSN–CD44 interaction” below) in data set [1] is given as “induce the dissociation of CD44 from MSN”. Moreover, the “h (hill slope) of MSN–CD44 TR-FRET dose response” value (“h (hill slope)” below) at MSN–CD44 interaction came out at 1.7.

On to `COc1ccccc1C(=O)Nc1ccc(-c2nc3ccccc3[nH]2)cc1` [Compound 2, N-(4-(1H-benzo[d]imidazol-2-yl)phenyl)-2-methoxybenzamide], for which the “effect on MSN–CD44 interaction” value in data set [1] is listed as “induce the dissociation of CD44 from MSN”. Besides, the “h (hill slope)” value at MSN–CD44 interaction is 15.8. In addition, in data set [2], the “solubility” value is reported as “low solubility”.

In the case of `COc1ccc(C(=O)Nc2ccc(-c3nc4ccccc4[nH]3)cc2)c(OC)c1` [Compound 2a, N-(4-(1H-benzo[d]imidazol-2-yl)phenyl)-2,4-dimethoxybenzamide], the “effect on MSN–CD44 interaction” value in data set [1] is “able to inhibit the MSN–CD44 interaction”. Moreover, at MSN–CD44 interaction, the “h (hill slope)” value was 2.4 and the “increase in potency relative to compound 2” value was “approximately 2 fold”. Moreover, in data set [2], the “solubility” value is “improved solubility”.

In the case of `O=C(Nc1ccc(-c2nc3ccccc3[nH]2)cc1)c1cccc(Cl)c1` [Compound 2b, N-(4-(1H-benzo[d]imidazol-2-yl)phenyl)-3-chlorobenzamide], in data set [1], the “effect on MSN–CD44 interaction” value is “able to inhibit the MSN–CD44 interaction”. Moreover, on MSN–CD44 interaction, the “h (hill slope)” value is 2.3 and the “increase in potency relative to compound 2” value was “approximately 2 fold”. The “solubility” value in data set [2] is on record as “improved solubility”.

With B1, the binding result in data set [3] and in data set [4] was “binds” throughout.

B2: the “fold higher concentration needed to inhibit, against WT MSN” value in data set [5] was determined as 10 fold.

Take B3: in data set [5], the “fold higher concentration needed to inhibit, against WT MSN” value was 10 fold.

On to EDGGSSWEYIWTLPSG [C3S1-pd peptide], for which the IC50 in data set [6] is ~220 nM. For the same molecule, in data set [7], the EC50 is ~130 nM.
